For one assay, the target named is T1, AXL (Homo sapiens, UniProt P30530).
T1 sequence (P30530 26-894): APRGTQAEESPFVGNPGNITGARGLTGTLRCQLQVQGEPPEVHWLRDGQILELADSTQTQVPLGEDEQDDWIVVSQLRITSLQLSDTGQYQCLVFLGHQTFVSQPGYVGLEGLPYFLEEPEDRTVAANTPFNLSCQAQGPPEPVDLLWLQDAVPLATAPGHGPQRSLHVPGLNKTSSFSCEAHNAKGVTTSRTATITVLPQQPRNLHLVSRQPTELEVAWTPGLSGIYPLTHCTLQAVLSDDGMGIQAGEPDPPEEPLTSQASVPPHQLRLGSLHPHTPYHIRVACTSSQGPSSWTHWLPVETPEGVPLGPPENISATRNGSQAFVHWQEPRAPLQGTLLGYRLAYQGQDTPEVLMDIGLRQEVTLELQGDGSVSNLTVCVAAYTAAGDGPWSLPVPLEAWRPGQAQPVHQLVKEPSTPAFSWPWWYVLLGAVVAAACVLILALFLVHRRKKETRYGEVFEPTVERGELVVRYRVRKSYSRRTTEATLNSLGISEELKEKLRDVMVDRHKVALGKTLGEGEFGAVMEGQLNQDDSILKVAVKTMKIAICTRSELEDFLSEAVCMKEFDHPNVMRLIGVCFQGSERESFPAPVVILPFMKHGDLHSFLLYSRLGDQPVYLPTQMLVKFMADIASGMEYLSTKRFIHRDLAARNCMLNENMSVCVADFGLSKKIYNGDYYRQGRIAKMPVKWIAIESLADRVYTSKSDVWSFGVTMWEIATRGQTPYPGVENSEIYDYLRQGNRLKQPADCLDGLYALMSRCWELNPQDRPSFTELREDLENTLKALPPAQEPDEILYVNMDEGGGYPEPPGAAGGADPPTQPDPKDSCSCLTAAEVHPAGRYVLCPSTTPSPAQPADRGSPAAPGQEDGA
The assay can be described thus: TR-FRET kinase activity assay, AXL. The format is biochemical. The note with it: ATP at Km, 60 minutes. The gist of the method: (§1)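 Steps: compound, enzyme and labeled peptide combined at RT (50 mM HEPES pH 7.5, 10 mM MgCl2, 1 mM DTT); ATP added at Km; 60 min reaction; EDTA quench; Eu-antibody development 30 min in darkness; TR-FRET measured and IC50 fitted.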
On the technique in general: TR-FRET usually uses a lanthanide donor and a delayed reading to cut background.

A further assay addresses T2, TYRO3 (Homo sapiens, UniProt Q06418).
T2 sequence (Q06418 41-890): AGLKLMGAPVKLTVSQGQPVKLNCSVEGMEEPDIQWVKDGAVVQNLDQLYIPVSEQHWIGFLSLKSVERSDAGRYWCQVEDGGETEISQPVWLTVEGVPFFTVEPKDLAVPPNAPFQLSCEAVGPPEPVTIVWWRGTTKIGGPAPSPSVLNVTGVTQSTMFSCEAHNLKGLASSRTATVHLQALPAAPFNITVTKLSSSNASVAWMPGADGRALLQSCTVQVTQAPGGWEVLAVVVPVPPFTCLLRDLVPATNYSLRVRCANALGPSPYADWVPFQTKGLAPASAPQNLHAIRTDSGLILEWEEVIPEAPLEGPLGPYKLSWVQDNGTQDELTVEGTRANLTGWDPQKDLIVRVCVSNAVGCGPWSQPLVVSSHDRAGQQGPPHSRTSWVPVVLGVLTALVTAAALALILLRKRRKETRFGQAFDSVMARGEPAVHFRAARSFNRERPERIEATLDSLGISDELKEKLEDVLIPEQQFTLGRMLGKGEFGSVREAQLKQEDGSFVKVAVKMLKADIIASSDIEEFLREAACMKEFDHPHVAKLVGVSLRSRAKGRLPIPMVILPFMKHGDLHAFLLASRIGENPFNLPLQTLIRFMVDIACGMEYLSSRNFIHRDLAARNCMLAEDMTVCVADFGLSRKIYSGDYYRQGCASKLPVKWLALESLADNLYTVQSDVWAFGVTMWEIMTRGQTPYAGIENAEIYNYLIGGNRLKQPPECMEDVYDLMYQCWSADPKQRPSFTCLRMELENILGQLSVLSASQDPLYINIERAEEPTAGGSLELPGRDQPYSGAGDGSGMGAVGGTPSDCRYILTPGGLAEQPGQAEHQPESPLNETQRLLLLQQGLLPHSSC
The assay can be described thus: TR-FRET kinase activity assay, TYRO3. The assay is classed as biochemical. The note with it: ATP at Km, 60 minutes. In short, it runs like this: as §1

SMILES strings stand for the structures. Some results are limits rather than exact numbers.

The IC50 is the point on the concentration scale where inhibition reaches its midpoint. The low end stands for higher potency, the high end for lower potency. `CCCC(C)Nc1ncc2c(N3CC[C@H](N(C)C)C3)ncc([C@H]3CC[C@H](O)CC3)c2n1` (stereo partly shown) [Compound 159]: the IC50 at AXL was 1000 to 10000 nM; at TYRO3, at most 100 nM.
For `CCCC(C)Nc1ncc2c(OC[C@H]3CC[C@H](O)CC3)ncc([C@H]3CC[C@H](O)CC3)c2n1` (stereo partly shown) [Compound 160], the IC50 is 100 to 1000 nM on AXL and at most 100 nM against TYRO3.
As for `CCCC(C)Nc1ncc2c(OC3CC(C)(C)N(C)C(C)(C)C3)ncc([C@H]3CC[C@H](O)CC3)c2n1` (stereo partly shown) [Compound 161], the IC50 against AXL and on TYRO3 was at most 100 nM in each case.
In the case of `CN1CCC(Nc2ncc3c(OC4CCNCC4)ncc([C@H]4CC[C@H](O)CC4)c3n2)C1=O` (stereo partly shown) [Compound 162], the IC50 at AXL and at TYRO3 was 1000 to 10000 nM each time.
Consider `Cc1nccn1CCNc1ncc2c(OC3CCNCC3)ncc([C@H]3CC[C@H](O)CC3)c2n1` [Compound 163], for which the IC50 was 1000 to 10000 nM at AXL and at most 100 nM against TYRO3.
For `O[C@H]1CC[C@H](c2cnc(OC3CCNCC3)c3cnc(NC4CCC(F)(F)CC4)nc32)CC1` [Compound 164], in that order: 1000 to 10000 nM and 100 to 1000 nM.
For `CCCC(C)Nc1ncc2c(NC3CCN(C(=O)C(F)(F)F)CC3)ncc([C@H]3CC[C@H](O)CC3)c2n1` (stereo partly shown) [Compound 165], in that order: 100 to 1000 nM and at most 100 nM.
For `CCCC(C)Nc1ncc2c(OC3CCNCC3)ncc([C@H]3CC[C@H](O)CC3)c2n1` (stereo partly shown) [Compound 166], in that order: 100 to 1000 nM and at most 100 nM.
For `CC1CC(Nc2ncc3c(OC4CCNCC4)ncc([C@H]4CC[C@H](O)CC4)c3n2)C1` (stereo partly shown) [Compound 167], the IC50 at AXL and against TYRO3 was at most 100 nM each time.
Regarding `CC1CC(Nc2ncc3c(OC4CCNCC4)ncc([C@H]4CC[C@@H](O)CC4)c3n2)C1` (stereo partly shown) [Compound 168], the values for the IC50 on AXL and at TYRO3 were 100 to 1000 nM and at most 100 nM, respectively.
For `CCCC(C)Nc1ncc2c(=O)n(CCN(C)C)cc([C@H]3CC[C@H](O)CC3)c2n1` (stereo partly shown) [Compound 169], in that order: 1000 to 10000 nM and at most 100 nM.
For `CCCC(C)Nc1ncc2c(OC3CCN(CCC(=O)N(C)C)CC3)ncc([C@H]3CC[C@H](O)CC3)c2n1` (stereo partly shown) [Compound 170], in that order: 100 to 1000 nM and at most 100 nM.
Take `CCC[C@H](C)Nc1ncc2c(OC3CCNCC3)ncc([C@H]3CC[C@H](O)CC3)c2n1` [Compound 171]: the IC50 against AXL and against TYRO3 was at most 100 nM in each case.
With `CCCC(C)Nc1ncc2c(OC3CCN(CC(=O)N(C)C)CC3)ncc([C@H]3CC[C@H](O)CC3)c2n1` (stereo partly shown) [Compound 172], the IC50 against AXL was 100 to 1000 nM; against TYRO3 it was at most 100 nM.
`CCCC(C)Nc1ncc2c(OC3CCN(CCOC)CC3)ncc([C@H]3CC[C@H](O)CC3)c2n1` (stereo partly shown) [Compound 173]: the IC50 against AXL is 100 to 1000 nM; at TYRO3, at most 100 nM.
For `CCCC(C)Nc1ncc2c(O[C@@H]3C[C@H]4CC[C@@H](C3)O4)ncc([C@H]3CC[C@H](O)CC3)c2n1` (stereo partly shown) [Compound 174], the IC50 on AXL and against TYRO3 was 100 to 1000 nM each time.
For the compound `CCCC(C)Nc1ncc2c(O[C@H]3C[C@H]4CC[C@@H](C3)O4)ncc([C@H]3CC[C@H](O)CC3)c2n1` (stereo partly shown) [Compound 175], the IC50 at AXL and against TYRO3 was 100 to 1000 nM each time.
Turning to `CCCC(C)Nc1ncc2c(O[C@H]3C[C@@H](O)C3)ncc([C@H]3CC[C@H](O)CC3)c2n1` (stereo partly shown) [Compound 176], the IC50 against AXL was 100 to 1000 nM; against TYRO3, at most 100 nM.
For `CCCC(C)Nc1ncc2c(=O)n(CCN3CCOCC3)cc([C@H]3CC[C@H](O)CC3)c2n1` (stereo partly shown) [Compound 177], in that order: 1000 to 10000 nM and at most 100 nM.
For `CC(C)C(C)Nc1ncc2c(OC3CCNCC3)ncc([C@H]3CC[C@H](O)CC3)c2n1` (stereo partly shown) [Compound 178], in that order: 100 to 1000 nM and at most 100 nM.
For `CCCC(C)Nc1ncc2c(N(C)C3CCNCC3)ncc([C@H]3CC[C@H](O)CC3)c2n1` (stereo partly shown) [Compound 179], in that order: 100 to 1000 nM and at most 100 nM.
As for `CCCC(C)Nc1ncc2c(N3CCC[C@H](N(C)C)C3)ncc([C@H]3CC[C@H](O)CC3)c2n1` (stereo partly shown) [Compound 180], the IC50 on AXL is 1000 to 10000 nM; at TYRO3, at most 100 nM.
With `CCCC(C)Nc1ncc2c(N3CC(N(C)C)C3)ncc([C@H]3CC[C@H](O)CC3)c2n1` (stereo partly shown) [Compound 181], the IC50 against AXL is 1000 to 10000 nM; at TYRO3 it was over 10000 nM.
For `CCCC(C)Nc1ncc2c(OCCN3CCOCC3)ncc([C@H]3CC[C@H](O)CC3)c2n1` (stereo partly shown) [Compound 182], in that order: 1000 to 10000 nM and 100 to 1000 nM.
For `O[C@H]1CC[C@H](c2cnc(OC3CCNCC3)c3cnc(NC4CCCCC4)nc32)CC1` [Compound 183], the IC50 on AXL is 100 to 1000 nM; at TYRO3, over 10000 nM.
For `CCCC(C)Nc1ncc2c(OC3CCOCC3)ncc([C@H]3CC[C@@H](N(C)C)CC3)c2n1` (stereo partly shown) [Compound 184], in that order: 1000 to 10000 nM and over 10000 nM.
For `CCCC(C)Nc1ncc2c(OC3CCOCC3)ncc([C@H]3CC[C@H](N(C)C)CC3)c2n1` (stereo partly shown) [Compound 185], in that order: 100 to 1000 nM and over 10000 nM.
For `CCCC(C)Nc1ncc2c(=O)n(C3CCN(C(C)C)CC3)cc([C@H]3CC[C@H](O)CC3)c2n1` (stereo partly shown) [Compound 186], in that order: 100 to 1000 nM and over 10000 nM.
As to `CCCC(C)Nc1ncc2c(O[C@H]3C[C@H](O)C3)ncc([C@H]3CC[C@H](O)CC3)c2n1` (stereo partly shown) [Compound 187], the IC50 against AXL was 100 to 1000 nM; at TYRO3, at most 100 nM.
Consider `CCCC(C)Nc1ncc2c(N3CCC[C@@H](N(C)C)C3)ncc([C@H]3CC[C@H](O)CC3)c2n1` (stereo partly shown) [Compound 188], for which the values for the IC50 against AXL and against TYRO3 were 1000 to 10000 nM and over 10000 nM, respectively.
For the compound `C[C@H](Nc1ncc2c(OC3CCNCC3)ncc([C@H]3CC[C@H](O)CC3)c2n1)c1ccccc1` [Compound 189], the values for the IC50 at AXL and against TYRO3 were 1000 to 10000 nM and over 10000 nM, respectively.
Take `CCC[C@H](C)Nc1ncc2c(OC3CCN(C)CC3)ncc([C@H]3CC[C@H](O)CC3)c2n1` [Compound 190]: the IC50 at AXL and on TYRO3 was 100 to 1000 nM each time.
As to `CCCC(C)Nc1ncc2c(OCCN(C)C)ncc([C@H]3CC[C@H](O)CC3)c2n1` (stereo partly shown) [Compound 191], the values for the IC50 against AXL and at TYRO3 were 1000 to 10000 nM and over 10000 nM, respectively.
For `CCCC(C)Nc1ncc2c(=O)n(C3CCN(C(=O)CN(C)C)CC3)cc([C@H]3CC[C@H](O)CC3)c2n1` (stereo partly shown) [Compound 192], in that order: 1000 to 10000 nM and over 10000 nM.
For `CCCC(C)Nc1ncc2c(=O)n(CC3CCN(C)CC3)cc([C@H]3CC[C@H](O)CC3)c2n1` (stereo partly shown) [Compound 193], in that order: 100 to 1000 nM and over 10000 nM.
Turning to `C[C@@H](CC(F)(F)F)Nc1ncc2c(O[C@H]3C[C@](C)(O)C3)ncc([C@H]3CC[C@H](O)CC3)c2n1` [Compound 430], the values for the IC50 at AXL and against TYRO3 were 100 to 1000 nM and at most 100 nM, respectively.
For `COC[C@H](C)Nc1ncc2c(O[C@H]3C[C@@H](O)C3(C)C)ncc([C@H]3CC[C@H](O)CC3)c2n1` [Compound 431], in that order: 1000 to 10000 nM and at most 100 nM.
For `COCCN1[C@@H]2CC[C@H]1C[C@H](Oc1ncc([C@H]3CC[C@H](O)CC3)c3nc(N[C@@H](C)CC(F)(F)F)ncc13)C2` [Compound 432], in that order: at most 100 nM and at most 100 nM.

Values taken from patent publication US20200291018A1, “TAM KINASE INHIBITORS” (SYROS PHARMACEUTICALS, INC., priority 2017, published 2020).
